# Data: patent US20250302080A1, “SWEETNESS AND/OR FLAVOR ENHANCER” (AJINOMOTO CO., INC., priority 2022, published 2025)
# Assays:
# [1] = Sensory evaluation of sweetness intensity in sucrose solution (Experimental Examples 25-27); conditions: added alone, 3.0 points or more
# Experimental: A negative control sucrose solution (0.7 wt % sucrose solution) was prepared by dissolving sucrose in filtered water.
# (§1) A sensory evaluation of sweetness intensity was performed for each sample by a panel of four experts according to the following evaluation criteria.
# Sweetness intensity was evaluated by 0.0 to 10.0 points based on the following reference samples (negative control (hereinafter referred to as NC) (0.0 point); reference 1 (hereinafter referred to as R1) (3.0 points), reference 2 (hereinafter referred to as R2) (5.0 points); reference 3 (hereinafter referred to as R3) (10.0 points)). The average score (rounded to two decimal places) of each expert panelist was calculated. An average score of 3.0 points or more was considered to be functional. • NC (0.0 point): 7.0 wt % sucrose solution (solvent: filtered water) • R1 (3.0 points): 7.3 wt % sucrose solution (solvent: filtered water) • R2 (5.0 points): 7.5 wt % sucrose solution (solvent: filtered water) • R3 (10.0 points): 8.0 wt % sucrose solution (solvent: filtered water)
# A sensory evaluation of sweetness intensity was performed for each sample by a panel of four experts according to the same evaluation criteria as in Experimental Example 25.
# [2] = Sensory evaluation of sweetness intensity in sucralose solution (Experimental Examples 23-24); conditions: sucralose solution; added alone; 3.0 points or more
# Experimental: A negative control sucralose solution (0.0140 wt % sucralose solution) was prepared by dissolving sucralose in filtered water.
# as §1
# Sweetness intensity was evaluated by 0.0 to 10.0 point based on the following reference samples (negative control (hereinafter referred to as NC) (0.0 point); reference 1 (hereinafter referred to as R1) (3.0 points), reference 2 (hereinafter referred to as R2) (5.0 points); reference 3 (hereinafter referred to as R3) (10.0 points)). The average score (rounded to two decimal places) of each expert panelist was calculated. An average score of 3.0 points or more was considered to be functional. • NC (0.0 point): 0.0140 wt % sucralose solution (solvent: filtered water) • R1 (3.0 points): 0.0164 wt % sucralose solution (solvent: filtered water) • R2 (5.0 points): 0.0180 wt % sucralose solution (solvent: filtered water) • R3 (10.0 points): 0.0220 wt % sucralose solution (solvent: filtered water)
# A sensory evaluation of sweetness intensity was performed for each sample by a panel of four experts according to the same evaluation criteria as in Experimental Example 23.
smiles,measurement,setting,value
CCCCCCCCCC(=O)O [decanoic acid],concentration at which a sweetness-enhancing effect was confirmed,[1],10 ppb
same,concentration at which a sweetness-enhancing effect was confirmed,[2],10 ppb
